# Data as given in patent publication US8440460B2, “Methods for transdifferentiating cells” (The Board of Regents of the University of Texas System, priority 2005, dated 2013).
# “And” between values parts separate entries of the source, which are not always exact repeats. Equal values may be shown once.
# Columns and labels:
# [1] = test system: normal bone marrow-derived CD45-negative MSCs; test: FACS analysis of endothelial markers CD133 and VEGFR-2 in treated bone marrow-derived CD45-negative MSCs; assay type: cell-based, human; settings: five ng/mL 5-azacytidine days 1 and 4, 100 ng/mL EGF days 7 and 10; FACS day 13
# Protocol: FIG. 9: Conversion of normal human bone marrow stroma to endothelial progenitor cells by 5-azacytidine and endothelial growth factor (EGF). Normal bone marrow-derived CD45-negative MSCs were used in this experiment and Five ng/mL of 5-azacytidine was added to culture on days 1 and 4, and 100 ng/mL EGF were added on days 7 and 10. The cultures were analyzed on day 13. The cells were stained with anti-CD133 APC and anti-VEGFR-2 PE antibodies and analyzed by FACS as described above. […] Note that the when treated with AZA+EGF 7.34% of MSC become CD133^+VEGFR-2^+.
# In the next set of experiments the inventors determined whether fibroblasts could be reprogrammed to generate endothelial cells. […] Then, the cells were analyzed for the expression of two endothelial cell markers; the endothelial progenitor marker CD-133, as well as the expression of vascular endothelial growth factor-2 receptor (VEGFR-2).
# In particular, normal bone marrow-derived CD45-negative mesenchymal cells (ie., bone marrow-derived fibroblastic cells) were used in this experiment and five ng/mL of 5-azacytidine was added to culture on days 1 and 4, and 100 ng/ml EGF were added on days 7 and 10. The cultures were analyzed on day 13. The cells were stained with anti-CD133 APC and anti-VEGFR-2 PE antibodies and analyzed by FACS as described above. […]
# [2] = test system: HS-5 fibroblast cell line; test: FACS analysis of hematopoietic cell surface markers (CD45, CD3, CD14, CD19) in treated HS-5 cells; assay type: cell-based, human; settings: 5-azacytidine days 1 and 4, GM-CSF 50 ng/mL and SCF 50 ng/mL days 7 and 10 (FIG. 1 schedule), FACS day 13
# Protocol: In these studies, HS-5 fibroblast cells were transferred to tissue culture flasks as described herein. 2.5 μg 5-azacytidine were added to the culture at days 1 and 4. Granulocyte macrophage colony-stimulating factor (GM-CSF; 50 ng/mL) and stem cell factor (SCF; 50 ng/mL) were added to the culture on days 7 and 10. The cells were harvested and analyzed for the presence of hematopoietic cell surface markets such as CD45 on day 13.
# The human bone marrow stroma/MSC cell line HS-5 was obtained from ATCC. These fibroblast-like cells are plastic adherent and grow as a single layer in α-medium (GIBCO, Grand Island, N.Y.) supplemented with 10% fetal calf serum (FCS; Hyclone, Logan, Utah). […] When growth factors were added, α-medium was replaced with Iscove's modified Dulbecco's medium (IMDM; GIBCO).
# For the HS-5 cultures, HS-5 fibroblast cells were transferred to tissue culture flasks as described. […] The cells were harvested and analyzed for the presence of hematopoietic cell surface markets such as CD45 on day 13.
# In these studies, HS-5 cells were incubated with or without 5-azacytidine and/or growth factors according to the schedule described in FIG. 1. On day 13 the cells were harvested and analyzed for the presence of cell surface CD45 by FACS. All viable cells were analyzed and the CD45-corresponding isotypic control was used.
# [3] = test system: HS-5 cells; test: Flow cytometry of 5-methylcytidine as a marker of global DNA methylation in HS-5 cells; assay type: cell-based, human; settings: 5-azacytidine 2.5 uM overnight
# Protocol: FIG. 3: Azacytidine hypomethylates HS-5 cells. […] HS-5 cells were treated w/ and w/o 5-azacytidine 2.5 uM overnight. After incubation the cells were harvested and washed in PBS. The cells were then fixed and permeabilized using the BD Cytofix/Cytoperm kit (BD Biosciences, San Diego Calif.) as per the kit instructions. After fixation and permeabilization the cells were stained using mouse anti 5-methylcytadine (Serotec Inc., Raleigh N.C.) for 30 minutes. After washing the cells 3 times in the Permwash buffer provided with the BD kit, the mouse antibody was then detected using an RPE labeled rabbit anti mouse IgG (Serotec) for 30 minutes. After 3 additional wash steps, the cells were resuspended in staining buffer (as per the BD kit) and analyzed on a FACSCaliber flow cytometer (BD Immunnocytometry Systems, La Jolla Calif.) for any decrease in 5-methylcytidine. […]
# HS-5 cells were treated w/ and w/o 5-azacytidine 2.5 uM overnight. […] After washing the cells 3 times in the Permwash buffer provided with the BD kit, the mouse antibody was then detected using an RPE labeled rabbit anti mouse IgG (Serotec) for 30 minutes. After 3 additional wash steps, the cells were resuspended in staining buffer (as per the BD kit) and analyzed on a FACSCaliber flow cytometer (BD Immunnocytometry Systems, La Jolla Calif.) for any decrease in 5-methylcytidine. […]
# [4] = test system: normal bone marrow stroma (MSC) CD45-negative cells; test: FACS analysis of CD45 in treated CD45-negative normal bone marrow stroma cells (MSC); assay type: cell-based, human; settings: FIG. 1 schedule
# Protocol: Human bone marrow stroma cells were grown from the bone marrow of healthy individuals as described above. When the cultures matured and formed homogenous layers of fibroblast-looking cells (termed mesenchymal stem cells; MSC), the cells were trypsinized and analyzed by fluorescence activated cell scanner/sorter (FACS; above) for the presence of the cell surface marker CD45. When the adherent fibroblast-like MSC became CD45-negative, the cells were harvested and transferred to another tissue flask (day 1 of culture).
# Generation of Bone Marrow Stroma Cell Cultures. […] The culture medium and floating cells were completely aspirated and replaced with fresh tissue culture medium. Upon confluence, cells were exposed to 0.05% trypsin and 0.53 mM EDTA (GIBCO) at 37° C. for 10 min. Following incubation, FCS (v/v) was added for 5 min., the cells were removed from the tissue culture flasks, washed in PBS, transferred to new tissue culture flasks at a low density, and incubated with fresh tissue culture media. The cells were expanded and tested until all hematopoietic elements were no more present and all cells were CD45-negative.
# For the normal marrow stoma cultures, human bone marrow stroma cells were grown from the bone marrow of healthy individuals as described above. When the cultures had matured and formed homogenous layers of fibroblast-looking cells, the cells were trypsinized and analyzed by fluorescence activated cell scanner/sorter (FACS; above) for the presence of the cell surface marker CD45. When the adherent fibroblast-like cells became CD45-negative, the cells were harvested and transferred to another tissue flask (day 1 of culture).
# [5] = test system: HS-5 cells; test: CFU-GM colony culture assay in methylcellulose; assay type: cell-based, human; settings: 14 days
# Protocol: FIG. 5: HS-5 cells transdifferentiate into hematopoietic colony-forming cells. Converted (see FIG. 1) and untreated HS-5 cells were harvested from the tissue culture flasks and culture in methylcellulose in a cl0nigtenic assay in the presence of 50 ng/mL GM-CSF, 50 ng/mL SCF and erythropoietin as described above. After 14 days the cultures were examined using an inverted microscope.
# Colony-forming unit granulocyte-macrophage (CFU-GM) colony culture assay. The colony-forming unit-granulocyte-macrophage (CFU-GM) clonogenic assay was performed as previously described (49). Briefly, 2×10^5 treated and untreated cells were cultured in 0.8% methylcellulose in IMDM (GIBCO) supplemented with 10% FCS, and 50 ng/ml recombinant human granulocyte-macrophage colony-stimulating factor. […] All cultures were evaluated after 14 days for the number of CFU-GM colonies, defined as a cluster of more than 50 cells containing granulocytes, monocytes and macrophages. To identify the cells comprising the CFU-GM colonies, single colonies were microaspirated at random, transferred to glass slides, dried and stained with Write's stain and microscopically analyzed.
# Converted (see FIG. 1) and untreated HS-5 cells were harvested from the tissue culture flasks and culture in methylcellulose in a cl0nigtenic assay in the presence of 50 ng/mL GM-CSF, 50 ng/mL SCF and erythropoietin as described above. […]
# [6] = test system: normal human foreskin fibroblasts; settings: FIG. 2 schedule, FACS day 6
Compound,CD133+VEGFR-2+ cells [1],cells expressing CD45 [2],effect on 5-methylcytidine (DNA methylation) [3],CD45 expression (in words) ([4]; FACS day 13),"CD45 expression (in words) ([4]; FACS day 13, listed as 5-Azacytidine)","CD45 expression (in words) ([4]; FACS day 13, listed as 5-azcytidine)",microscopic evaluation of the colonies [5],conversion into CD45-positive cells (in words) [6],lateral/forward scatter analysis of the cell population [6]
EGF: epidermal growth factor,< 1.5%,–,–,–,–,–,–,–,–
Nc1ncn([C@@H]2O[C@H](CO)[C@@H](O)[C@H]2O)c(=O)n1 [5-azacytidine],4.14%,3.5% and 11%,hypomethylates,slightly increased,unable to give rise to a significant number of blood cells,remained CD45-negative,characteristics of mixed granulocyte macrophage lineage,converted them into CD45-positive cells,generates a new transdifferentiated (“differentiated”) population of cells
